Data: ChEMBL document CHEMBL1201862, “PubChem BioAssay data set” (2004)
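Test compounds were applied to cells in 96-well plates for 48 hours at 5 doses. GI50 marks 50% less growth.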 The source made the active and inactive calls. Cut-off read from the data, not from the text of the source: active = GI50 up to about 1.1 µM and inactive = higher.

Legend:
Assay in all cases: inhibition of tumour cell growth, NCI panel, 48 h
[1] = system: SN12C
[2] = system: SF-539
[3] = system: HOP-62
[4] = system: HCT-116
[5] = system: LOX IMVI
[6] = system: SF-268
[7] = system: U-251
[8] = system: SNB-75
[9] = system: DU-145
[10] = system: NCI-H460
[11] = system: K562
[12] = system: MCF7
[13] = system: KM12
[14] = system: SF-295
[15] = system: RPMI-8226
[16] = system: M14
[17] = system: SK-MEL-5
[18] = system: SK-OV-3
[19] = system: MDA-MB-435
[20] = system: IGROV-1
[21] = system: UO-31
[22] = system: OVCAR-8
[23] = system: COLO 205
[24] = system: Malme-3M
[25] = system: HOP-92
[26] = system: UACC-62
[27] = system: UACC-257
[28] = system: MDA-MB-231
[29] = system: ACHN
[30] = system: CAKI-1
[31] = system: HCT-15
[32] = system: A549
[33] = system: SK-MEL-2
[34] = system: EKVX
[35] = system: A498
[36] = system: T47D
[37] = system: NCI-H226
[38] = system: NCI-H522
[39] = system: PC-3
[40] = system: OVCAR-4
[41] = system: SNB-19
[42] = system: OVCAR-3
[43] = system: Hs-578T
[44] = system: 786-0
[45] = system: MDA-N
[46] = system: NCI-H23
[47] = system: BT-549
[48] = system: SW-620
[49] = system: RXF 393
[50] = system: TK-10
[51] = system: HT-29
[52] = system: SK-MEL-28
[53] = system: OVCAR-5
[54] = system: NCI/ADR-RES
[55] = system: CCRF-CEM
[56] = system: HL-60
[57] = system: HCC 2998

For `O=C(CON1C(=O)c2ccccc2C1=O)c1ccccc1`, the GI50 [1] was 47.1 µM (inactive), the GI50 [2] was 37.5 µM (inactive) and the GI50 [3] was > 100 µM (inactive). For the same compound, the GI50 [4] was 36.2 µM (inactive), the GI50 [5] was 35.6 µM (inactive) and the GI50 [6] was > 100 µM (inactive). For the same compound, the GI50 [7] was > 100 µM (inactive), the GI50 [8] was 97.5 µM (inactive) and the GI50 [9] was > 100 µM (inactive). The GI50 [10] was > 100 µM (inactive), the GI50 [11] was 45.9 µM (inactive) and the GI50 [12] was 40.1 µM (inactive). The GI50 [13] was > 100 µM (inactive), the GI50 [14] was > 100 µM (inactive) and the GI50 [15] was 18.6 µM (inactive). For the same compound, the GI50 [16] was 57.1 µM (inactive), the GI50 [17] was > 100 µM (inactive) and the GI50 [18] was > 100 µM (inactive). For the same compound, the GI50 [19] was 42 µM (inactive), the GI50 [20] was > 100 µM (inactive) and the GI50 [21] was 21.3 µM (inactive). For the same compound, the GI50 [22] was > 100 µM (inactive), the GI50 [23] was 56.4 µM (inactive) and the GI50 [24] was 21.1 µM (inactive). For the same compound, the GI50 [25] was 58.6 µM (inactive), the GI50 [26] was > 100 µM (inactive) and the GI50 [27] was 34.8 µM (inactive). For the same compound, the GI50 [28] was > 100 µM (inactive), the GI50 [29] was > 100 µM (inactive) and the GI50 [30] was 19.1 µM (inactive). The GI50 [31] was greater than 100 µM, the GI50 [32] was > 100 µM (inactive) and the GI50 [33] was > 100 µM (inactive). For the same compound, the GI50 [34] was > 100 µM (inactive), the GI50 [35] was > 100 µM (inactive) and the GI50 [36] was 22.3 µM (inactive). The GI50 [37] was > 100 µM (inactive), the GI50 [38] was 17.7 µM (inactive) and the GI50 [39] was > 100 µM (inactive). For the same compound, the GI50 [40] was 77.8 µM (inactive), the GI50 [41] was > 100 µM (inactive) and the GI50 [42] was 49.9 µM (inactive). For the same compound, the GI50 [43] was > 100 µM (inactive), the GI50 [44] was 32.4 µM (inactive) and the GI50 [45] was > 100 µM (inactive). For the same compound, the GI50 [46] was > 100 µM (inactive), the GI50 [47] was > 100 µM (inactive) and the GI50 [48] was 24.3 µM (inactive). For the same compound, the GI50 [49] was 55.8 µM (inactive), the GI50 [50] was 20.7 µM (inactive) and the GI50 [51] was 48.3 µM (inactive). The GI50 [52] was > 100 µM (inactive), the GI50 [53] was > 100 µM (inactive) and the GI50 [54] was > 100 µM (inactive).

For `CCc1cc(O)c(Cl)c(C)c1Cl`, the GI50 [1] was 15.6 µM (inactive), the GI50 [2] was 18.2 µM (inactive) and the GI50 [3] was 18.7 µM (inactive). The GI50 [4] was 16.1 µM (inactive), the GI50 [5] was 15.9 µM (inactive) and the GI50 [6] was 20.9 µM (inactive). The GI50 [55] was 18.2 µM (inactive), the GI50 [7] was 18 µM (inactive) and the GI50 [8] was 18.9 µM (inactive). For the same compound, the GI50 [9] was 16.7 µM (inactive), the GI50 [10] was 15.6 µM (inactive) and the GI50 [12] was 23.2 µM (inactive). For the same compound, the GI50 [13] was 15.2 µM (inactive), the GI50 [56] was 33.7 µM (inactive) and the GI50 [14] was 20 µM (inactive). For the same compound, the GI50 [15] was 13.8 µM (inactive), the GI50 [16] was 18.6 µM (inactive) and the GI50 [17] was 17.5 µM (inactive). The GI50 [18] was 18.3 µM (inactive), the GI50 [19] was 16.4 µM (inactive) and the GI50 [20] was 18.6 µM (inactive). For the same compound, the GI50 [21] was 19.1 µM (inactive), the GI50 [22] was 18.2 µM (inactive) and the GI50 [23] was 21.4 µM (inactive). The GI50 [24] was 19.4 µM (inactive), the GI50 [25] was 12.8 µM (inactive) and the GI50 [26] was 15.1 µM (inactive). For the same compound, the GI50 [27] was 17.2 µM (inactive), the GI50 [28] was 27 µM (inactive) and the GI50 [29] was 15.7 µM (inactive). The GI50 [30] was 17.3 µM (inactive), the GI50 [31] was 17.4 µM and the GI50 [32] was 23.1 µM (inactive). For the same compound, the GI50 [33] was 43.3 µM (inactive), the GI50 [34] was 11.9 µM (inactive) and the GI50 [35] was 13 µM (inactive). For the same compound, the GI50 [36] was 28.7 µM (inactive), the GI50 [38] was 11.7 µM (inactive) and the GI50 [39] was 19.5 µM (inactive). For the same compound, the GI50 [40] was 15.1 µM (inactive), the GI50 [41] was 30.3 µM (inactive) and the GI50 [42] was 18.2 µM (inactive). The GI50 [43] was 17.8 µM (inactive), the GI50 [44] was 17.1 µM (inactive) and the GI50 [45] was 16.3 µM (inactive). The GI50 [46] was 19 µM (inactive), the GI50 [57] was 15.2 µM (inactive) and the GI50 [47] was 17.5 µM (inactive). For the same compound, the GI50 [48] was 21.9 µM (inactive), the GI50 [49] was 14.1 µM (inactive) and the GI50 [50] was 18.2 µM (inactive). For the same compound, the GI50 [51] was 19.2 µM (inactive), the GI50 [52] was 19.5 µM (inactive) and the GI50 [53] was 20.6 µM (inactive). For the same compound, the GI50 [54] was 21.7 µM (inactive).
